The record followed here is PubChem BioAssay (NCI).

Each structure is given as a SMILES string. “And” between values parts separate entries of the source, which are not always exact repeats. Identical values can stand only once.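 Following 48 hours of exposure in 96-well plates, responses at five concentrations were used to interpolate endpoints linearly. The concentration for 50% growth inhibition is given as GI50. The concentration for full growth arrest is given as TGI.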 Where only a bound is given, the exact number is not on record here.

Test systems include ACHN renal; HCC-2998 colon; IGROV1 ovarian; K-562 leukemia; MCF7 breast; NCI-H23 lung; NCI-H522 lung; U251 CNS; UACC-62 melanoma; UO-31 renal.
Experiment in all cases: NCI tumour cell line growth inhibition, 48 h

For `CN1C(c2ccccc2)CC(=NO)CC1c1ccccc1` (configuration not stated), the TGI is above 100 µM in the assay with ACHN renal; > 100 µM and 81.6 µM in the assay on HCC-2998 colon; above 100 µM in the assay with IGROV1 ovarian; above 100 µM with K-562 leukemia; above 100 µM in the assay with NCI-H23 lung; above 100 µM in the assay on NCI-H522 lung. Also, the TGI with U251 CNS, in the assay on UACC-62 melanoma and in the assay on UO-31 renal was above 100 µM throughout. Further, the GI50 in the assay with HCC-2998 colon is 30.5 µM; in the assay on K-562 leukemia it was 32.6 µM; in the assay with MCF7 breast, 44.3 µM; in the assay with NCI-H522 lung, 39.7 µM.

`C=C[C@@H]1CCC/C=C/[C@@H]2C[C@H](O)C[C@H]2[C@H](O)/C=C/C(=O)O1`: the GI50 with ACHN renal is 1.03 µM; with HCC-2998 colon it was 0.409 µM; in the assay on IGROV1 ovarian, 1.7 µM; in the assay with K-562 leukemia, 3.18 µM; in the assay on MCF7 breast it was 0.388 µM; in the assay on NCI-H23 lung, 0.475 µM. Further, the GI50 in the assay on NCI-H522 lung is 1.52 µM; in the assay with U251 CNS it was 0.941 µM; in the assay with UACC-62 melanoma it was 0.545 µM; in the assay with UO-31 renal, 0.37 µM. Moreover, the TGI is above 100 µM with ACHN renal; 2.92 µM with HCC-2998 colon; above 100 µM with IGROV1 ovarian; above 100 µM in the assay on K-562 leukemia; 16.6 µM in the assay with NCI-H23 lung; 4.24 µM in the assay with NCI-H522 lung. The TGI in the assay with U251 CNS, with UACC-62 melanoma and in the assay on UO-31 renal was above 100 µM throughout.

On to `Cc1ccc(NC(=O)CCc2nnc3s/c(=C\C=C\c4ccccc4)c(=O)n23)cc1`, for which the TGI in the assay with ACHN renal, in the assay with HCC-2998 colon, in the assay with IGROV1 ovarian, in the assay on K-562 leukemia, with MCF7 breast and in the assay on NCI-H23 lung was above 100 µM in each case. For the same molecule, the TGI in the assay with NCI-H522 lung, in the assay with U251 CNS, in the assay with UACC-62 melanoma and with UO-31 renal was above 100 µM throughout.

As for `O=C(Nc1ccc(Cl)cc1)c1cc(NCc2cc(O)ccc2O)ccc1O`, the GI50 is 3.37 µM in the assay on ACHN renal; 7.7 µM in the assay on HCC-2998 colon; 11.2 µM in the assay on IGROV1 ovarian; 2.65 µM with K-562 leukemia; 3.87 µM in the assay on MCF7 breast; 11.8 µM with NCI-H23 lung. Further, the GI50 in the assay on NCI-H522 lung was 0.488 µM; in the assay with U251 CNS it was 3.96 µM; with UACC-62 melanoma, 2.06 µM; in the assay with UO-31 renal, 1.45 µM. The TGI in the assay on ACHN renal amounted to 15.1 µM; in the assay with HCC-2998 colon it was 21.4 µM; in the assay on IGROV1 ovarian, 38.8 µM; with K-562 leukemia it was 8.53 µM; in the assay on MCF7 breast, 25.5 µM; with NCI-H23 lung it was 31.4 µM. Besides, the TGI in the assay on NCI-H522 lung was found to be 1.88 µM; with U251 CNS it was 13.4 µM; in the assay with UACC-62 melanoma, 5.3 µM; in the assay with UO-31 renal, 3.21 µM.

As for `CCOc1ccc(Nc2ccnc3cc(Cl)ccc23)cc1`, the GI50 with ACHN renal was 49.6 µM; with HCC-2998 colon it was above 100 µM; with IGROV1 ovarian, above 100 µM; in the assay on K-562 leukemia, 32.3 µM; in the assay on MCF7 breast it was 34.5 µM; with NCI-H23 lung it was above 100 µM. Also, the GI50 in the assay on NCI-H522 lung is 26.4 µM; with U251 CNS, above 100 µM; in the assay with UACC-62 melanoma, above 100 µM; with UO-31 renal, above 100 µM. Moreover, the TGI in the assay on ACHN renal, with HCC-2998 colon, with IGROV1 ovarian, in the assay with K-562 leukemia, in the assay on MCF7 breast and with NCI-H23 lung was above 100 µM each time. Besides, the TGI in the assay with NCI-H522 lung is 86.6 µM; with U251 CNS, above 100 µM; in the assay with UACC-62 melanoma, above 100 µM; with UO-31 renal it was above 100 µM.

As to `O=c1cc(-c2ccccc2)oc2c(O)c(O)ccc12`, the GI50 is 5.69 µM with ACHN renal; 23.8 µM in the assay on HCC-2998 colon; 6.99 µM in the assay on IGROV1 ovarian; 6.08 µM in the assay on K-562 leukemia; 20 µM in the assay on MCF7 breast; 6.27 µM in the assay on NCI-H23 lung. Besides, the GI50 in the assay with NCI-H522 lung is 8.27 µM; with U251 CNS it was 7.72 µM; with UACC-62 melanoma, 13.8 µM; in the assay with UO-31 renal, 3.02 µM. Also, the TGI with ACHN renal is above 100 µM; with HCC-2998 colon it was above 100 µM; in the assay on IGROV1 ovarian, 47.1 µM; with K-562 leukemia it was above 100 µM; in the assay on MCF7 breast it was above 100 µM; in the assay with NCI-H23 lung, above 100 µM. Moreover, the TGI in the assay with NCI-H522 lung is above 100 µM; in the assay with U251 CNS, above 100 µM; in the assay with UACC-62 melanoma it was 66.4 µM; with UO-31 renal, 29 µM.

On to `N#Cc1ccc2[nH]cc(Cc3c[nH]c4ccc(C#N)cc34)c2c1`, for which the GI50 with ACHN renal was 12.2 µM; with HCC-2998 colon it was 9.77 µM; in the assay on IGROV1 ovarian, 12.3 µM; with K-562 leukemia, 14.7 µM; in the assay with MCF7 breast, 15.2 µM; in the assay with NCI-H23 lung, 15.2 µM. Further, the GI50 is 7.45 µM in the assay with NCI-H522 lung, 15.7 µM in the assay with U251 CNS, 8.42 µM in the assay with UACC-62 melanoma and 8.64 µM with UO-31 renal. Also, the TGI in the assay with ACHN renal was 35.5 µM; in the assay on HCC-2998 colon, 18.6 µM; in the assay on IGROV1 ovarian it was 35.7 µM; in the assay on K-562 leukemia, above 50 µM; in the assay on MCF7 breast it was above 50 µM; in the assay with NCI-H23 lung it was 35.4 µM. Moreover, the TGI worked out at 17.4 µM in the assay with NCI-H522 lung, 48.5 µM with U251 CNS, 20.1 µM in the assay on UACC-62 melanoma and 20.3 µM in the assay with UO-31 renal.
